Laboratory results as given in PMC6066355, “Probing the binding site of novel selective positive allosteric modulators at the M1 muscarinic acetylcholine receptor” (Biochemical Pharmacology, 2018).
Numbering of substitutions follows the chain as printed. Read-outs that look alike come from different tables or passages of the source.

Tests used:
WT M1 mAChR [1] = target: T1, WT M1 mAChR (Homo sapiens, UniProt P11229); test: Receptor alkylation assay: IP1 accumulation after PBZ pre-treatment, CHO-hM1 cells; assay type: cell-based; conditions: for Effect on maximal ACh response (potency of ACh increased): 10 µM PBZ pre-treatment, ACh a partial agonist; for αβ (functional cooperativity with ACh, antilog in brackets) / Logαβ (logarithm of functional cooperativity between ACh and modulator): alkylated with PBZ (10 µM pre-treatment); for Logαβ (logarithm of functional cooperativity between ACh and modulator): β constrained to 1
T1 construct: expressed in transfected cells
T1 sequence (P11229 1-460): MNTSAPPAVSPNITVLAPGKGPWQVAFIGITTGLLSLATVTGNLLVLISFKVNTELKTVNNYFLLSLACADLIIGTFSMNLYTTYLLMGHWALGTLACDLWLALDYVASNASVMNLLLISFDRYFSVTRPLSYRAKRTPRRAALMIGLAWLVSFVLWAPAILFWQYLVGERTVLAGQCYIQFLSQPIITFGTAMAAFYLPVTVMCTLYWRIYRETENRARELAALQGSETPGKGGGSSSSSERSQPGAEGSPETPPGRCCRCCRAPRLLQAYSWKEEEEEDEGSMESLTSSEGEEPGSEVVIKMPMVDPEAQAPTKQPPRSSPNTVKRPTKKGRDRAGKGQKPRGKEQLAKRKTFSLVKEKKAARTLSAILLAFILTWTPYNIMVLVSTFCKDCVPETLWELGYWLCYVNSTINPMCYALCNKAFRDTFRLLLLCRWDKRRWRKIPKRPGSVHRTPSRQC
Experimental: (§1) The IP-One assay kit (Cisbio) was used for the direct quantitative measurement of myo-Inositol 1 phosphate (IP1). Cells were seeded at 25,000 per well into 96-well transparent cell culture plates and incubated overnight at 37 °C. […] Cells were then lysed with IP1 lysis buffer (50 mM HEPES pH 7.0, 15 mM KF, 1.5% V/V Triton-X-100, 3% V/V FBS, 0.2% W/V BSA), and IP1 levels were measured by incubation of cell lysates with FRET reagents (the cryptate-labeled anti-IP1 antibody and the d2-labeled IP1 analogue) for 1 h at 37 °C. […] Signals were expressed as the FRET ratio: F = (fluorescence665 nm/fluorescence590 nm) × 10^4, and normalized to the response to maximal ACh concentration (100 µM).
Cells were pre-treated with vehicle or the irreversible orthosteric alkylating agent, phenoxybenzamine (PBZ) for 30 min at 37 °C, 5% CO2 to reduce functional receptor availability, followed by three extensive washes with PBS. IP1 accumulation assays were then performed as described above.
(§2) Functional interaction studies between orthosteric agonists and allosteric modulators in IP1 assays were analysed using the following operational model of allosterism and agonism (Eq. (3)):(3) E=Basal+Em-BasalAKB+αβB+τBBEC50/EC50KB+B+AKB+αβB+τBBEC50 where Em is the maximal possible system response, and Basal is the response in the absence of agonist. KB is the equilibrium dissociation constant of allosteric ligand, and EC50 is the concentration of orthosteric agonist required to achieve half maximal response. [A] and [B] denote concentrations of orthosteric and allosteric ligands, respectively. α and β denote allosteric effects on orthosteric ligand binding affinity and efficacy, respectively, and τB denotes the efficacy of allosteric ligand. This model assumes that ACh is a full agonist at the receptor in both the absence/presence of modulator and/or there is no efficacy modulation (i.e., β = 1).

Y82^2.61A M1 mAChR [2] = target: T2, Y82^2.61A M1 mAChR (Homo sapiens, UniProt P11229, Y82A); test: Whole cell [3H]NMS binding inhibition/interaction assay (ACh ± PAM), FlpIn CHO cells
T2 construct: expressed in transfected cells
T2 sequence (P11229 1-460 Y82A): T1 sequence (P11229 1-460) with Y82A
Experimental: (§3) Saturation binding assays were performed to estimate the expression levels and equilibrium dissociation constant of the radioligand (KD). FlpIn CHO cells stably expressing the WT or mutant c-myc hM1 mAChRs were plated at the density of 25,000 per well of 96-well white clear bottom Isoplates (PerkinElmer Life Sciences, Boston, MA), and grown overnight at 37 °C. […] Atropine at the final concentration of 100 µM was used to determine non-specific binding. The assays were terminated by rapid removal of the radioligand, and two washes with 100 µl/well ice-cold 0.9% NaCl buffer.
(§4) All data were analysed using GraphPad Prism 7 (San Diego, CA). […] Binding interaction studies between orthosteric agonists and allosteric modulators were fitted to the following allosteric ternary complex model (Eq. (1)):(1) Y=BmaxD/D+KDKB/α^′B+KB1+I/KI+B/KB+αIB/KIKB where Bmax is the total number of receptors, [D], [B] and [I] denote the concentrations of radioligand, allosteric ligand, and orthosteric ligand, respectively, and KD, KB and KI represent their respective equilibrium dissociation constants. α′ and α are the cooperativity factors between the allosteric ligand and radioligand or orthosteric ligand, respectively.

WT M1 mAChR [3] = target: T1, WT M1 mAChR; test: as above; conditions: for Logα NMS (logarithm of binding cooperativity between [3H]NMS and modulator): constrained to −2 where preferred model by F-test
Experimental: as §3, §4

Y82^2.61A M1 mAChR [4] = target: T2, Y82^2.61A M1 mAChR; test: IP-One (IP1) accumulation assay, FlpIn CHO cells; assay type: cell-based; conditions: for LogτB (logarithm of functional efficacy of the modulator): corrected for receptor expression levels relative to WT; for τB (functional efficacy of the modulator, antilog in brackets): corrected for receptor expression relative to WT; for Logαβ (logarithm of functional cooperativity between ACh and modulator): pKB constrained to Table 1, β constrained to 1
Experimental: as §1
(Eq. (2)) was used:(2) Y=Basal+Em-Basal/1+KA+A/τA where Em is the maximal possible system response and Basal is the response in the absence of agonist. [A] denotes the concentration of ligand, and KA represents its equilibrium dissociation constants. τ denotes the intrinsic efficacy of the ligand, which incorporates the total receptor density and the efficiency of stimulus-response coupling.
as §2

Compound | Effect on maximal ACh response (potency of ACh increased) (WT M1 mAChR [1]) | αβ (functional cooperativity with ACh, antilog in brackets) (WT M1 mAChR [1]) | Logαβ (logarithm of functional cooperativity between ACh and modulator) (WT M1 mAChR [1]) | Logα ACh (logarithm of binding cooperativity between ACh and modulator) (Y82^2.61A M1 mAChR [2]; Y82^2.61A) | Logα NMS (logarithm of binding cooperativity between [3H]NMS and modulator) (Y82^2.61A M1 mAChR [2]; Y82^2.61A) | α ACh (binding cooperativity with ACh, antilog in brackets) (Y82^2.61A M1 mAChR [2]; Y82^2.61A) | α NMS (binding cooperativity with [3H]NMS, antilog in brackets) (Y82^2.61A M1 mAChR [2]; Y82^2.61A) | Kb (Y82^2.61A M1 mAChR [2]; Y82^2.61A, allosteric ternary complex model, 0.6 nM [3H]NMS, read-out: pKB (negative logarithm of the allosteric modulator equilibrium dissociation constant) (converted)) | Logα ACh (logarithm of binding cooperativity between ACh and modulator) (WT M1 mAChR [3]; WT) | Kb (WT M1 mAChR [3]; WT, allosteric ternary complex model, 0.3 nM [3H]NMS, read-out: pKB (negative logarithm of the allosteric modulator equilibrium dissociation constant) (converted)) | Logα NMS (logarithm of binding cooperativity between [3H]NMS and modulator) (WT M1 mAChR [3]; WT) | αβ (functional cooperativity with ACh, antilog in brackets) (Y82^2.61A M1 mAChR [4]) | LogτB (logarithm of functional efficacy of the modulator) (Y82^2.61A M1 mAChR [4]) | τB (functional efficacy of the modulator, antilog in brackets) (Y82^2.61A M1 mAChR [4]) | Logαβ (logarithm of functional cooperativity between ACh and modulator) (Y82^2.61A M1 mAChR [4]) | Kb (Y82^2.61A M1 mAChR [2]) | Kb (WT M1 mAChR [3]) | α ACh (binding cooperativity with ACh, antilog in brackets) (WT M1 mAChR [3]; WT)
Cc1cnc(C(=O)N[C@H]2CCOC[C@@H]2O)cc1Cc1ccc(-c2cscn2)cc1 [PF-06767832, N-((3R,4S)-3-hydroxytetrahydro-2H-pyran-4-yl)-5-methyl-4-(4-(thiazol-4-yl)benzyl)pyridine-2-carboxamide] | no effect on the maximal agonist response | 144 | 2.16 ± 0.11 | 1.53 ± 0.11 | −0.16 ± 0.02 | 30.9 | 0.62 | 2450 nM | 1.40 ± 0.08 | 309 nM | −1.05 ± 0.06 | 46 | 0.95 ± 0.12 | 9 | 1.66 ± 0.12 |  |  | 
Cn1cc(-c2ccc(COc3ccccc3-c3cc(=O)n(C4CCCCC4O)cn3)cc2)cn1 (stereo not shown) [MIPS1780, 3-(2-hydroxycyclohexyl)-6-(2-((4-(1-methyl-1H-pyrazol-4-yl)-benzyl)oxy)phenyl)pyrimidin-4(3H)-one] | no effect on the maximal agonist response | 117 | 2.07 ± 0.13 | 1.66 ± 0.19 | −0.16 ± 0.06 | 45.7 | 0.69 |  | 1.60 ± 0.08 |  | = −2 | 91 | 1.85 ± 0.12 | 71 | 1.96 ± 0.14 | 10000 nM | 661 nM | 
Cn1cc(-c2ccc(Cn3cc(C(=O)N[C@H]4CCCC[C@@H]4O)c4c(F)cc(F)cc43)cn2)cn1 [VU6004256, 4,6-difluoro-N-(1S,2S)-2-hydroxycyclohexyl-1-((6-(1-methyl-1H-pyrazol-4-yl)pyridine-3-yl)methyl)-1H-indole-3-carboxamide] | no effect on the maximal agonist response | 91 | 1.96 ± 0.22 | 1.08 ± 0.13 | −0.09 ± 0.03 | 11.2 | 0.76 |  | 1.40 ± 0.09 |  | = −2 | 19 | 0.50 ± 0.10 | 3 | 1.29 ± 0.10 | 2240 nM | 479 nM | 15.5
